Experimental data published in patent EP4722219A1 (Gan & Lee Pharmaceuticals Co., Ltd., priority 2023, dated 2024).

How the values were obtained:
Format in all cases: cell-based
ERα [1] = target: T1, ERα (Homo sapiens, UniProt P03372); assay: ERα degradation in MCF-7 cells (Western blot); parameters: host or cells: MCF-7; details: 4 hours
T1 sequence (P03372 1-595): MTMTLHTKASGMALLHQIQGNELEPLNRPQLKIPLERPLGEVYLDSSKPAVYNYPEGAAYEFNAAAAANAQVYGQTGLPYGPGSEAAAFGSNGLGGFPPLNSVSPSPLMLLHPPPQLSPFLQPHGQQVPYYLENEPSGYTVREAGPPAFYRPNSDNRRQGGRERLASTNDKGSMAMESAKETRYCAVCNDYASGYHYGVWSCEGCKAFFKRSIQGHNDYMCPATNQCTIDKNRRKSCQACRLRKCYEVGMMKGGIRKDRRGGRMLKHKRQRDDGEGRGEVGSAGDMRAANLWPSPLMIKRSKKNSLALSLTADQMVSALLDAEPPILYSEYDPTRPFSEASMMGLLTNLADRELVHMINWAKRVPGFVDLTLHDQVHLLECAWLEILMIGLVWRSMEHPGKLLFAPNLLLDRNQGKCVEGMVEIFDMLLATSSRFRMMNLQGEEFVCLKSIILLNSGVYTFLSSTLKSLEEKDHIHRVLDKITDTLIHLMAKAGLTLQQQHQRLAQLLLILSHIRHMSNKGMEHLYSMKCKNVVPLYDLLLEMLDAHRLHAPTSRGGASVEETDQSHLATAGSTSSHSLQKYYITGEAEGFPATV
Outline: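 MCF-7 cells treated 4 h at 37 °C with compound at 0.15–1000 nM final. ERα in lysates measured by Western blot (20 µg protein), normalized to an internal reference protein; degradation rate calculated against control.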

ERα [2] = target: T1, ERα; assay: ERα degradation in T-47D cells (Western blot); details: 4 hours
Outline: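 T-47D cells at 3×10^5 cells/well were exposed to compound (final 0.15-1000 nM, DMSO) for 4 hours at 37°C and then lysed in RIPA. ERα was measured by Western blot (20 µg protein) with infrared imaging. The degradation rate was calculated from ERα/internal-reference grayscale ratios relative to control.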

MCF-7 cells = assay: Inhibition of cell proliferation in MCF-7 cells (CCK-8); details: MCF-7 cell proliferation, 6 days treatment
Outline: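 MCF-7 cells, 800 per well in DMEM plus 10% FBS, exposed to graded PROTAC concentrations for 6 days at 37 °C, 5% CO2. Viability by CCK-8; IC50 fitted from inhibition rates.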

T-47D cells = assay: Inhibition of cell proliferation in T-47D cells (CCK-8); details: 6 days treatment, CCK-8 cell viability
Outline: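 T-47D cells (3,000/well) in RPMI-1640 with 10% FBS were exposed to a concentration range of PROTAC compounds for 6 days at 37 °C, 5% CO2. Viability read by CCK-8; IC50 fitted from inhibition rate.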

Row | SMILES | Degradation rate of ERα in MCF-7 cells (%) (ERα [1]; 1nM) | Degradation rate of ERα in MCF-7 cells (%) (ERα [1]; 10nM) | Degradation rate of ERα in T-47D cells (%) (ERα [2]; 1nM) | Degradation rate of ERα in T-47D cells (%) (ERα [2]; 10nM) | IC50 (MCF-7 cells) | IC50 (T-47D cells) | IC50 (MCF-7 cells; Homo sapiens, MCF7, 144 h) | IC50 (T-47D cells; Homo sapiens, T47D, 144 h)
1 | CN(c1ccc2c(c1)COC[C@H]1CN(CC3CCC(OC4CCN(c5ccc([C@@H]6c7ccc(O)cc7CC[C@@H]6c6ccccc6)cc5)CC4)CC3)CCN21)C1CCC(=O)NC1=O (stereo partly drawn) [ER-P-53, 3-(((R)-3-((4-((1-(4-((1R,2S)-6-hydroxy-2-phenyl-1,2,3,4-tetrahydronaphthalen-1-yl)phenyl)piperidin-4-yl)oxy)cyclohexyl)methyl)-1,2,3,4,4a,5-hexahydro-7H-benzo[e]pyrazino[2,1-c][1,4]oxazepin-9-yl)(methyl)amino)piperidine-2,6-dione] | 10% | 21% | 18% | 33% | 1310 nM | 252 nM |  | 
2 | O=C1CC[C@H](NC(=O)c2ccc3c(c2F)OCC32CCN(C3CCC4(CC3)CCN(c3ccc([C@@H]5c6ccc(O)cc6CC[C@@H]5c5ccccc5)cc3)CC4)CC2)C(=O)N1 [ER-P-39, N-((S)-2,6-dioxopiperidin-3-yl)-7-fluoro-1'-(3-(4-((1R,2S)-6-hydroxy-2-phenyl-1,2,3,4-tetrahydronaphthalen-1-yl)phenyl)-3-azaspiro[5.5]undecan-9-yl)-2H-spiro[benzofuran-3,4'-piperidine]-6-carboxamide] | -13% | -16% | -7% | -3% |  |  | 526 nM | 14.2 nM
3 | O=C1CCC(Nc2ccc3c(c2)OCC2(CCN(C[C@H]4CC[C@@H](OC5CCN(c6ccc([C@@H]7c8ccc(O)cc8CC[C@@H]7c7ccccc7)cc6)CC5)CC4)CC2)C3)C(=O)N1 (stereo partly drawn) [ER-P-41] | 13% | 15% | 17% | 21% |  |  | 377 nM | 37.3 nM
4 | C[C@@H]1Cc2cc(O)ccc2C(c2c(F)cc(N3CCC(C(=O)N4CCC(N5CCC6(CC5)COc5c6ccc6c5n(C)c(=O)n6C5CCC(=O)NC5=O)CC4)CC3)cc2F)N1CC(F)F (stereo partly drawn) [ER-P-30, 3-(1'-(1-(1-(4-((3R)-2-(2,2-difluoroethyl)-6-hydroxy-3-methyl-1,2,3,4-tetrahydroisoquinolin-1-yl)-3,5-difluorophenyl)piperidine-4-carbonyl)piperidin-4-yl)-1-methyl-2-oxo-1,2-dihydro-3H,7H-spiro[benzofuro[6,7-d]imidazole-6,4'-piperidin]-3-yl)piperidine-2,6-dione] | 42% | 14% | 47% | 17% |  |  | 4960 nM | 2.42 nM
5 | O=C1CCC(Nc2ccc3c(c2)OC2(CC3)CN(C[C@H]3CC[C@@H](OC4CCN(c5ccc([C@@H]6c7ccc(O)cc7CC[C@@H]6c6ccccc6)cc5)CC4)CC3)C2)C(=O)N1 (stereo partly drawn) [ER-P-33, 3-((1-(((1S,4s)-4-((1-(4-((1R,2S)-6-hydroxy-2-phenyl-1,2,3,4-tetrahydronaphthalen-1-yl)phenyl)piperidin-4-yl)oxy)cyclohexyl)methyl)spiro[azetidine-3,2'-chroman]-7'-yl)amino)piperidine-2,6-dione] | -5% | -9% | -16% | 32% |  |  | 2330 nM | 15.5 nM
6 | C[C@@H]1Cc2cc(O)ccc2C(c2c(F)cc(N3CCC4(CC3)CC(N3CCC5(CC3)CCC3(CC5)COc5c3ccc3c5CN(C5CCC(=O)NC5=O)C3=O)C4)cc2F)N1CC(F)F (stereo partly drawn) [ER-P-27, 3-(1"-(7-(4-((3R)-2-(2,2-difluoroethyl)-6-hydroxy-3-methyl-1,2,3,4-tetrahydroisoquinolin-1-yl)-3,5-difluorophenyl)-7-azaspiro[3.5]nonan-2-yl)-6-oxo-6,8-dihydro-2H,7H-dispiro[furo[2,3-e]isoindole-3,1'-cyclohexane-4',4"-piperidin]-7-yl)piperidine-2,6-dione] | 26% | 62% | 20% | 53% |  |  | < 0.256 nM | 1.34 nM
7 | Cn1c(=O)n(C2CCC(=O)NC2=O)c2cc3c(cc21)C1(CCN(CC2CCN(c4ccc([C@@H]5c6ccc(O)cc6CC[C@@H]5c5ccccc5)cc4)CC2)CC1)CO3 (stereo partly drawn) [ER-P-24, 3-(1'-((1-(4-((1R,2S)-6-hydroxy-2-phenyl-1,2,3,4-tetrahydronaphthalen-1-yl)phenyl)piperidin-4-yl)methyl)-1-methyl-2-oxo-1,2-dihydro-3H,6H-spiro[benzofuro[5,6-d]imidazole-7,4'-piperidin]-3-yl)piperidine-2,6-dione] | -68% | -39% | -16% | -49% |  |  | 1070 nM | 19.2 nM
8 | Cn1c(=O)n(C2CCC(=O)NC2=O)c2ccc3c(c21)OCC31CCN(C2CC3(CCN(c4ccc([C@@H]5c6ccc(O)cc6CC[C@@H]5c5ccccc5)cc4)CC3)C2)CC1 (stereo partly drawn) [ER-P-17, 3-(1'-(7-(4-((1R,2S)-6-hydroxy-2-phenyl-1,2,3,4-tetrahydronaphthalen-1-yl)phenyl)-7-azaspiro[3.5]nonan-2-yl)-1-methyl-2-oxo-1,2-dihydro-3H,7H-spiro[benzofuro[6,7-d]imidazole-6,4'-piperidin]-3-yl)piperidine-2,6-dione] | 37% | 33% | 22% | 30% | 4560 nM | 20.9 nM |  | 
9 | C[C@@H]1Cc2cc(O)ccc2C(c2c(F)cc(N3CCC4(CC3)CC(N3CC5(CCC6(CC5)COc5c6ccc6c5CN(C5CCC(=O)NC5=O)C6=O)C3)C4)cc2F)N1CC(F)F (stereo partly drawn) [ER-P-28, 3-(1-(7-(4-((3R)-2-(2,2-difluoroethyl)-6-hydroxy-3-methyl-1,2,3,4-tetrahydroisoquinolin-1-yl)-3,5-difluorophenyl)-7-azaspiro[3.5]nonan-2-yl)-6"-oxo-6",8"-dihydro-2"H,7"H-dispiro[azetidine-3,1'-cyclohexane-4',3"-furo[2,3-e]isoindol]-7"-yl)piperidine-2,6-dione] | 38% | 63% | 41% | 59% |  |  | < 0.256 nM | 1.56 nM
10 | Cn1c(=O)n(C2CCC(=O)NC2=O)c2ccc3c(c21)C1(CCN(C[C@H]2CC[C@@H](OC4CCN(c5ccc([C@@H]6c7ccc(O)cc7CC[C@@H]6c6ccccc6)cc5)CC4)CC2)CC1)CO3 (stereo partly drawn) [ER-P-66, 3-(1'-(((1S,4s)-4-((1-(4-((1R,2S)-6-hydroxy-2-phenyl-1,2,3,4-tetrahydronaphthalen-1-yl)phenyl)piperidin-4-yl)oxy)cyclohexyl)methyl)-1-methyl-2-oxo-1,2-dihydro-3H,7H-spiro[benzofuro[4,5-d]imidazole-8,4'-piperidin]-3-yl)piperidine-2,6-dione] | 6% | 30% | 18% | 49% |  |  | 4100 nM | 14 nM
11 | O=C1CCC(N2Cc3c(ccc4c3OCC43CCC4(CCN(C5CCN(C(=O)C6CCN(c7ccc([C@@H]8c9ccc(O)cc9CC[C@@H]8c8ccccc8)cc7)CC6)CC5)CC4)CC3)C2=O)C(=O)N1 (stereo partly drawn) [ER-P-5] | 25% | 57% | 39% | 79% |  |  | < 0.256 nM | 0.96 nM
